Laboratory results published in patent US20090076050A1, “SYNERGISTIC TUMOR-KILLING EFFECT OF RADIATION AND BERBERINE COMBINED TREATMENT IN LUNG CANCER” (CHUNG SHAN MEDICAL U., priority 2007, published 2009).
Residues, ends and D or L forms follow the SMILES beside them. *: point of attachment. Cbz = O=C(OCc1ccccc1)*; CH2F = FC*

System: A549 cells
Experiment: inhibition assay with caspase and autophagy inhibitors on cells co-treated with berberine and IR
Format: cell-based, human
Procedure: Berberine has been reported to induce cell death in several cancer cells via mitochondrial disruption (Lin J P, et al. World J Gastroenterol 2006; 12:21-28.). Therefore, mitochondrial membrane potential was next measured with JC-1. Mitochondria membrane potential (Δ Ψm), the lipophilic cationic probe fluorochrome JC-1 (Invitrogen) was used. […] After a treatment of radiation (6 Gy) for 24 h in the absence or presence of 1.0-10 μM berberine, cells were rinsed with DMEM, and JC-1 (5 μmol/L) was loaded. Determination of Δ Ψm was also carried out with a FACScan Flow Cytometer. […] It has been reported that depolarized mitochondria would move into autophagic vacuoles in response to appropriate stimulation; thus, mitochondria dysfunction may be a point of overlap between apoptotic and autophagocytic processes (Bras M, et al. Biochemistry (Mosc) 2005; 70:231-39). […] On the other hand, beclin-1 siRNA and 3-MA (autophagy inhibitor) blocked the cell death induced by 5.0 μM berberine combined with 6 Gy IR (p<0.001). As a consequence, berberine sensitized A549 cells to IR damage via inducing autophagic cell death.

SMILES | effect of inhibitor on cell death induced by berberine combined with IR (A549, 5.0 μM berberine combined with 6 Gy IR, p<0.001) | effect of inhibitor on cell viability of cells co-treated with berberine and IR (A549, berberine and IR co-treatment, p=0.15)
Cn1cnc(N)c2ncnc1-2 [3-MA, 3-methyladenine] | blocked | 
COC(=O)C[C@H](NC(=O)[C@H](C)NC(=O)[C@@H](NC(=O)OCc1ccccc1)C(C)C)C(=O)CF [z-VAD-fmk] (Cbz-Val-Ala-Asp(OMe)-CH2F) |  | did not significantly affect
